Experimental data taken from ChEMBL document CHEMBL1130565, “Development of the new potent non-peptide gpIIb/IIIa antagonist NSL-95301 by utilizing combinatorial technique” (Bioorg Med Chem Lett, 1997).

Species: Homo sapiens
Test: In vitro collagen induced platelet aggregation inhibitory activity using human platelet rich plasma anti-coagulated with 0.38% trisodium citrate
Format: functional

SMILES	IC50 (Homo sapiens, Plasma) [µM]	IC50 [µM]
N=C(N)NCc1ccc(C(=O)NCCC(=O)N2CCC(C(=O)O)CC2)cc1	> 1000	
C[C@H](NC(=O)c1ccc(CN=C(N)N)cc1)C(=O)N1CCC(C(=O)O)CC1	710	
CC(C)(C(=O)N1CCC(CC(=O)O)CC1)C(NC(=O)c1ccc(C(=N)N)cc1)c1ccccc1 (single isomer, unassigned; (-))		31
CC(C)(C(=O)N1CCC(CC(=O)O)CC1)C(NC(=O)c1ccc(C(=N)N)cc1)c1ccccc1 (stereo in doubt; 18)		0.19
CN(CC(=O)N1CCC(C(=O)O)CC1)C(=O)c1ccc(NC(=N)N)cc1	100	
CN(CC(=O)N1CCC(CC(=O)O)CC1)C(=O)c1ccc(NC(=N)N)cc1	750	
CN(CC(=O)N1CCC(CC(=O)O)CC1)C(=O)c1ccc(CN=C(N)N)cc1	> 1000	
N=C(N)Nc1ccc(C(=O)NCCC(=O)N2CCC(C(=O)O)CC2)cc1	750	
N=C(N)c1ccc(C(=O)NCC(Cc2ccccc2)C(=O)N2CCC(CC(=O)O)CC2)cc1 (stereo not drawn)	4.1	
C[C@H](NC(=O)c1ccc(NC(=N)N)cc1)C(=O)N1CCC(C(=O)O)CC1	> 1000	
N=C(N)c1ccc(C(=O)NCC(Cc2ccc(O)cc2)C(=O)N2CCC(CC(=O)O)CC2)cc1 (stereo not drawn)	0.94	
N=C(N)c1ccc(C(=O)N2CCCC2CC(=O)N2CCC(CC(=O)O)CC2)cc1 (stereo not drawn)	4.3	
N=C(N)c1ccc(C(=O)N2CCCC(C(=O)N3CCC(CC(=O)O)CC3)C2)cc1 (stereo not drawn)	25	
N=C(N)c1ccc(C(=O)NCCC(=O)N2CCC(OCC(=O)O)CC2)cc1	18	
CN(CC(=O)N1CCC(C(=O)O)CC1)C(=O)c1ccc(CN=C(N)N)cc1	53	
CN(CC(=O)N1CCC(C(=O)O)CC1)C(=O)c1ccc(C(=N)N)cc1	330	
N=C(N)c1ccc(C(=O)NCCC(=O)N2CCC(C(=O)O)CC2)cc1	33	

Now from value to compound:

IC50 (Homo sapiens, Plasma) [µM]	IC50 [µM]	SMILES
5.2		N=C(N)c1ccc(C(=O)N[C@H](CC(=O)N2CCC(CC(=O)O)CC2)c2ccccc2)cc1
0.57		CC(C)(CNC(=O)c1ccc(C(=N)N)cc1)C(=O)N1CCC(CC(=O)O)CC1
25		CC(C)C(CNC(=O)c1ccc(C(=N)N)cc1)C(=O)N1CCC(CC(=O)O)CC1 (stereo not drawn)
82		CC(C)C(C(=O)N1CCC(CC(=O)O)CC1)C(NC(=O)c1ccc(C(=N)N)cc1)c1ccccc1 (stereo not drawn)
6.5		CN(CCC(=O)N1CCC(CC(=O)O)CC1)C(=O)c1ccc(C(=N)N)cc1
30		C[C@H](NC(=O)c1ccc(C(=N)N)cc1)C(=O)N1CCC(CC(=O)O)CC1
3.8		CCCCC(CNC(=O)c1ccc(C(=N)N)cc1)C(=O)N1CCC(CC(=O)O)CC1 (stereo not drawn)
7.5		CN(CC(=O)N1CCC(CC(=O)O)CC1)C(=O)c1ccc(C(=N)N)cc1
4.1		N=C(N)c1ccc(C(=O)N[C@@H](CC(=O)N2CCC(CC(=O)O)CC2)C(=O)Oc2ccccc2)cc1
0.59		CC(CNC(=O)c1ccc(C(=N)N)cc1)C(=O)N1CCC(CC(=O)O)CC1 (stereo not drawn)
110		C[C@H](NC(=O)c1ccc(C(=N)N)cc1)C(=O)N1CCC(C(=O)O)CC1
1.9		N=C(N)c1ccc(C(=O)N[C@@H](CC(=O)N2CCC(CC(=O)O)CC2)C(=O)OC2CCCCC2)cc1
	0.092	CC(C)(C(=O)N1CCC(CC(=O)O)CC1)C(NC(=O)c1ccc(C(=N)N)cc1)c1ccccc1 (single isomer, unassigned; (+))
16		CCC(C(=O)N1CCC(CC(=O)O)CC1)C(NC(=O)c1ccc(C(=N)N)cc1)c1ccccc1 (stereo not drawn)
5		C[C@@H](CC(=O)N1CCC(CC(=O)O)CC1)NC(=O)c1ccc(C(=N)N)cc1
9.2		CC(C)[C@@H](CC(=O)N1CCC(CC(=O)O)CC1)NC(=O)c1ccc(C(=N)N)cc1
